Usually Kd stands for the constant that tells how readily two partners part at equilibrium. A lower Kd goes with tighter binding.

1 compound from patent publication US20250051762A1, “PLATFORM USING DNA-ENCODED SMALL MOLECULE LIBRARIES AND RNA SELECTION TO DESIGN SMALL MOLECULES THAT TARGET RNA” (University of Florida Research Foundation, Incorporated, priority 2021, published 2025) can be followed below.

Assay [1] has as its system WT pri-miR-27a. The experiment in a line: RT-qPCR of miR-27a biogenesis in MCF-10a cells transfected with WT pri-miR-27a. As to conditions: WT pri-miR-27a plasmid, 48 h. The assay is classed as cell-based, human. From the text:
To gauge the specificity of 9 for pri-miR-27a, inhibition of biogenesis was first studied in a cellular model of healthy breast epithelium, MCF-10a, in which miR-27a expression is not detectable (Ct>31). MCF-10a cells were transfected with a plasmid encoding WT pri-miR-27a or mutant in which the two 5′GAG/3′CCC internal loops at and nearby the Drosha processing site were mutated to base pairs. In the absence of compound treatment, both primary miRNA transcripts were processed similarly, generating mature miR-27a, as determined by RT-qPCR.
Cell lines. Compounds were tested in MDA-MB-231 TNBC cells (HTB-26, ATCC), LNCaP metastatic prostate cancer cells (gifted from Junli Luo lab), MCF-7 (HTB-22, ATCC) breast cancer cells, HeLa cervical adenocarcinoma cells (CCL-2, ATCC), and MCF-10a, a model of healthy breast epithelial cells (CRL-10317, ATCC).
Cell culture and compound treatment. All cells were maintained at 37° C. with 5% CO2. […]
Analysis of mRNA abundance: Each cell line was grown as a monolayer in 12- or 24-well plates and treated as described in “Cell culture and compound treatment”. […] Relative abundance of mature miRNAs was calculated by normalizing to RNU6, and relative abundance for pri-miRNAs and mRNAs was calculated by normalizing to 18S ribosomal RNA, using the AAC, method. […]

The target of assay [2] is 5′GAG/3′CCC loop at pri-miR-27a's Drosha site. The experiment in a line: Binding affinity by microscale thermophoresis (MST), Cy5-labeled RNA. Set-up: species or system human. Here is the method:
Binding affinity measurements: Binding affinities were measured by microscale thermophoresis (MST), performed on a Monolith NT.115 system (NanoTemper Technologies) with Cy5-labeled RNAs. These RNAs include: the 5′GAG/3′CCC SEQ ID NO: 16 loop at pri-miR-27a's Drosha site (Sequence:/5′-Cy5/rCrUrGrArGrGrUrGrArArArCrArUrCrCrCrArG SEQ ID NO: 17; Dharmacon), a related internal loop not selected by 9. 5′CAG/3′GCC SEQ ID NO: 17 loop (Sequence:/5′-Cy5/rCrUrCrArGrGrUrGrArArArCrArUrCrCrGrArG SEQ ID NO: 16; Dharmacon), and an RNA in which the loop is mutated to a base pair (Sequence:/5-Cy5/rCrUrGrArGrGrUrGrArArArCrArUrCrUrCrArG SEQ ID NO: 16; Dharmacon).
Briefly, Cy5-labeled RNA (10 nM) was prepared in 1× Binding Buffer and folded by heating at 60° C. for 5 min and then slowly cooling to room temperature. After cooling, Tween-20 was added to a final concentration of 0.1% (v/v). Compound solutions were prepared separately in 20 μL of 1× Binding Buffer at a final concentration of 5 μM (1% (v/v) DMSO), followed by 1:1 serial dilutions in 1× Binding Buffer. RNA and compound solutions were then mixed 1:1 by volume to a total of 20 μL.
Samples were incubated for 20 min at room temperature and then loaded into premium capillaries (NanoTemper Tech, Cat #MO-K025). The following parameters were used for MST measurements: 5-20% LED power (adjusted to keep fluorescence intensity between 2000 and 8000), 80% MST power, Laser-On time=30 s, Laser-Off time=25 s. The resulting data were analyzed by calculating the change in thermophoresis as a function of compound concentration and fitted by Equation 1, a one site binding model, in NanoTemper Tech's MST analysis software to yield the dissociation constant (Kd):
Where F is the concentration of fluorescently labeled RNA; unbound and bound refer to the thermophoresis signal at completely unbound and bound state of RNA, respectively; c is the concentration of the compound; f (c) is the thermophoresis signal at compound concentration of c; and Kd is the dissociation constant.

`C#CCN(CC(N)=O)C(=O)C[C@H](Cc1c[nH]c2ccccc12)NC(=O)[C@@H]1C[C@H](NC(=O)Cn2c(=O)[nH]c3ccccc3c2=O)CN1` [Compound 9]: in assay [1], the “mature miR-27a levels” value is reported as “reduction” and the pri-miR-27a levels entry was “increase”. Also, in assay [2], the Kd turned out to be 90 ± 20 nM.
